Laboratory results from article PMC8230565, “Bisavenathramide Analogues as Nrf2 Inductors and Neuroprotectors in In Vitro Models of Oxidative Stress and Hyperphosphorylation” (Antioxidants, 2021).
“Also recorded” adds a separate entry of the source.

Legend:
Type in all cases: cell-based
[1] = system: HMOX1; assay: Western blot of Nrf2-dependent protein expression in AREc32 cells: HMOX1; details: 30 μM, 24 h
Description: (§1) AREc32 cells were collected from plates after 24 h of treatment with the selected compound at 30 µM. Then, they were lysed in ice-cold lysis buffer (1% Nonidet P-40, 10% glycerol, 137 mM NaCl, 20 mM Tris HCl pH 7.5, 1 μg/mL leupeptin, 1 mM phenylmethylsulfonyl fluoride, 20 mM NaF, 1 mM sodium pyrophosphate, and 1 mM Na3VO4). After this treatment, proteins (30 μg) were resolved by gel electrophoresis on sodium dodecyl sulfate–polyacrylamide (12%) and transferred to Immobilon-P membranes (MilliporeSigma, Burlington, MA, USA). The membranes were incubated with anti-GCLc (1:1000, Ab41463 (Abcam, Cambridge, MA, USA), anti−HMOX1 (1:1000, ab68477, Abcam), anti-NQO1 (1:1000, 11451-1-AP, Proteintech, Manchester, UK), or anti-β-Actin (1:100,000, A3854, Merck, Madrid, Spain). Peroxidase-conjugated secondary antibodies (1:10,000 and anti-rabbit: SC-2357, Santa Cruz Biotechnology, Dallas, TX, USA) were employed to detect the proteins by enhanced chemoluminescence. Band intensities corresponding to immunoblot detection of protein samples were quantitated with Fiji software.
(§2) Figure 4 Compound 3g effectively induces Nrf2 translocation and overexpression of Nrf2-ARE dependent genes in AREc32 cells. […] (B) Nrf2 nuclear localization analysis, measured as integrated intensity localized at the nucleus. HMOX1 (C) and NQO1 (D) expression in AREc32, measured by Western blot analysis. […]

[2] = system: Nrf2; assay: Nrf2 nuclear translocation, immunocytochemistry in AREc32 cells; details: 30 μM, 1 h
Description: AREc32 or SH-SY5Y cells were seeded in 24 multiwell plates (40,000 or 100,000 cells per well, respectively) on poly-D-Lysine coated crystal slides. AREc32 cells were incubated for 1 h with the compounds under assay, and were then fixed by treatment with a 4% solution of paraformaldehyde in PBS for 15 min, followed by three washings with PBS in 5 min intervals. SH-SY5Y cells were treated with compounds during 24 h, and then co-incubated with medium (basal), okadaic acid (OA, 20 nM), or OA plus compound 3i (10 μM). […]
Figure 4 Compound 3g effectively induces Nrf2 translocation and overexpression of Nrf2-ARE dependent genes in AREc32 cells. […] (B) Nrf2 nuclear localization analysis, measured as integrated intensity localized at the nucleus. HMOX1 (C) and NQO1 (D) expression in AREc32, measured by Western blot analysis. Cells were treated with compound 3g (30 µM), sulforaphane (10 µM), or culture medium (basal) for 24 h and protein expression was then assessed. Graphs are expressed as densitometric quantification using β-actin for normalization (bottom). […] Data are expressed as mean ± S.E.M. of six independent experiments. […]

[3] = system: NQO1; assay: Western blot of Nrf2-dependent protein expression in AREc32 cells: NQO1; details: 30 μM, 24 h
Description: as §1, §2

[4] = system: SH-SY5Y cells; assay: Superoxide production (DHE) in SH-SY5Y cells under R/O; details: 1 and 10 µM
Description: To evaluate superoxide production, we used the fluorescent dye dihydroethidium (DHE). SH-SY5Y cells were seeded in 96-well clear-bottom black plates (6 × 10^4 cells/well). After 24 h, cells were treated with compound 3i at the desired concentrations for 24 h. Thereafter, treatments were eliminated and cells were loaded with DHE (20 μM) for 45 min. […] Fluorescence was evaluated in a Nikon T1000 fluorescence microscope at 490/630 excitation/emission wavelengths, respectively. Images were quantitated using Fiji software, and data are expressed as the increase after 6 h exposure to ROS generator, normalized to basal conditions as 100% increase.
To further evaluate its mechanism of action, and considering the importance of exacerbated oxidative stress in neurodegenerative diseases, we evaluated its capacity to reduce free radical species production using the above-mentioned R/O toxic combination to generate ROS and measure the influence of 3i in the total ROS production by using the H2DCFDA dye, and also the specific superoxide production by using the selective dye dihydroetidium (DHE). […] This reduction might be related to a combination of direct scavenger effect and an increased expression of Nrf2-dependent antioxidant genes, such as HO-1.

[5] = system: SH-SY5Y cells; assay: Neuroprotection against rotenone/oligomycin A in SH-SY5Y cells (MTT); details: increasing concentrations; R/O 30/10 µM
[6] = system: AT8 (Ser202, Thr205 phospho-Tau); assay: Phospho-tau (AT8) immunofluorescence in SH-SY5Y cells treated with okadaic acid; details: 10 µM, OA 20 nM, 8 h
Description: (§3) AREc32 or SH-SY5Y cells were seeded in 24 multiwell plates (40,000 or 100,000 cells per well, respectively) on poly-D-Lysine coated crystal slides. AREc32 cells were incubated for 1 h with the compounds under assay, and were then fixed by treatment with a 4% solution of paraformaldehyde in PBS for 15 min, followed by three washings with PBS in 5 min intervals. SH-SY5Y cells were treated with compounds during 24 h, and then co-incubated with medium (basal), okadaic acid (OA, 20 nM), or OA plus compound 3i (10 μM). Thereafter, cells were permeabilized by treatment with 0.5% Triton X-100 for 5 min, followed by three washings with PBS, and were incubated overnight with primary antibody anti-Nrf2 (ARE, 1:50, A-10, sc-365949, Santa Cruz Biotechnology, Dallas, TX, USA), anti-pTau AT8 (1:400, MN1020, Thermofisher, Madrid, Spain), and anti-HO-1 (1:400, Ab13243, Abcam, Madrid, Spain). After three washes with PBS, the cells were incubated with secondary antibodies (1:800, 1 h). In order to visualize the nuclei, the cells were counterstained during the second wash with 5 μg·mL^−1 of Hoechst 33342 (Invitrogen, Madrid, Spain). […]
(§4) Finally, we evaluated the capacity of compound 3i to reduce tau hyperphosphorylation in the SH-SY5Y cellular line induced by okadaic acid (OA). […]

[7] = system: HO-1; assay: HO-1 immunofluorescence in SH-SY5Y cells treated with okadaic acid; details: 10 µM, OA 20 nM, 8 h
Description: as §3, §4

Compound	HMOX1 protein levels [1]	Nrf2 distribution in cells [2]	NQO1 protein levels [3]	superoxide production (DHE) [4]	neuroprotective effect against rotenone/oligomycin A by concentration [5]	phospho-tau levels [6]	increase of HO-1 levels compared to basal levels [7]
COC(=O)C1=C(C)N(CCc2ccccc2)C(=O)/C1=C\c1cc(OC)c(OC)c(OC)c1 [Compound 3g, Methyl (Z)-2-Methyl-5-oxo-1-phenethyl-4-(3,4,5-trimethoxybenzylidene)-4,5-dihydro-1H-pyrrole-3-carboxylate]	significantly increased	predominately nuclear distribution of Nrf2	significantly increased				
COC(=O)C1=C(C)N(CCc2ccccc2)C(=O)/C1=C\c1ccc(O)c(O)c1 [Compound 3i, Methyl (Z)-4-(3,4-Dihydroxybenzylidene)-2-methyl-5-oxo-1-phenethyl-4,5-dihydro-1H-pyrrole-3-carboxylate]				reduce superoxide production at both concentrations	statistically significant neuroprotective effect at 0.1 and 1 µM; also recorded: this activity was lost at 10 µM	significantly reduced phopho-tau levels to basal levels	46%
